ChEMBL document CHEMBL1201862, “PubChem BioAssay data set” (2004)
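Cells were grown in 96-well plates and exposed to each compound for 48 hours at five concentrations; endpoints were interpolated linearly between bracketing concentrations, or set to the highest concentration if not reached. GI50 marks 50% less growth.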 Calls of active or inactive are those of the source. No stated cut-off is given here; in the data, active = GI50 up to about 1.1 µM and inactive = higher.

Key:
Test in all cases: inhibition of tumour cell growth, NCI panel, 48 h
786-0 = test system: 786-0
A498 = test system: A498
HOP-62 = test system: HOP-62
HT-29 = test system: HT-29
LOX IMVI = test system: LOX IMVI
MDA-MB-231 = test system: MDA-MB-231
MDA-N = test system: MDA-N
MOLT-4 = test system: MOLT-4
Malme-3M = test system: Malme-3M
NCI-H23 = test system: NCI-H23
OVCAR-3 = test system: OVCAR-3
RXF 393 = test system: RXF 393
SF-295 = test system: SF-295
SK-MEL-28 = test system: SK-MEL-28
SK-MEL-5 = test system: SK-MEL-5
SNB-75 = test system: SNB-75
SW-620 = test system: SW-620
UACC-257 = test system: UACC-257
UO-31 = test system: UO-31

| SMILES | GI50 (786-0) | GI50 (A498) | GI50 (HOP-62) | GI50 (HT-29) | GI50 (LOX IMVI) | GI50 (MDA-MB-231) | GI50 (MDA-N) | GI50 (MOLT-4) | GI50 (Malme-3M) | GI50 (NCI-H23) | GI50 (OVCAR-3) | GI50 (RXF 393) | GI50 (SF-295) | GI50 (SK-MEL-28) | GI50 (SK-MEL-5) | GI50 (SNB-75) | GI50 (SW-620) | GI50 (UACC-257) | GI50 (UO-31) |
| --- | --- | --- | --- | --- | --- | --- | --- | --- | --- | --- | --- | --- | --- | --- | --- | --- | --- | --- | --- |
| COc1ccc(-c2oc3c(OC)c(OC)c(OC)c(O)c3c(=O)c2OC)cc1OC | 25.4 µM (inactive) | 19.9 µM (inactive) | 19.5 µM (inactive) | 23.6 µM (inactive) | 11 µM (inactive) | 22.2 µM (inactive) | 10.3 µM (inactive) | 15.5 µM (inactive) | 46.8 µM (inactive) | 31.1 µM (inactive) | 22.7 µM (inactive) | 17.4 µM (inactive) | 22 µM (inactive) | 32.2 µM (inactive) | 9.71 µM (inactive) | 1.66 µM (inactive) | 20.8 µM (inactive) | 32.1 µM (inactive) | 9.06 µM (inactive) |
| CC(C)(C)c1cc(OCc2nnc3sc(Cc4ccccc4)nn23)c(Cl)cc1OCc1nnc2sc(Cc3ccccc3)nn12 | 17.3 µM (inactive) | 30.5 µM (inactive) | 46.6 µM (inactive) | 22.1 µM (inactive) | 29.1 µM (inactive) | 19.3 µM (inactive) | 24.5 µM (inactive) | 17.3 µM (inactive) | 19.5 µM (inactive) | 31.9 µM (inactive) | 30.7 µM (inactive) | 18.1 µM (inactive) | 23.3 µM (inactive) | 24.2 µM (inactive) | 15.3 µM (inactive) | 15.3 µM (inactive) | 26.7 µM (inactive) | 21.3 µM (inactive) | 47.5 µM (inactive) |
| Clc1ccc(C2NN=C3c4ccccc4OCC32)cc1 (stereo not drawn) | 4.65 µM (inactive) | 18.2 µM (inactive) | 6.71 µM (inactive) | 3.13 µM (inactive) | 8.02 µM (inactive) | 2.39 µM (inactive) | 0.83 µM (active) | 4.43 µM (inactive) | 3.15 µM (inactive) | 4.39 µM (inactive) | 5.16 µM (inactive) | 3.46 µM (inactive) | 2.11 µM (inactive) | 15.3 µM (inactive) | 3.01 µM (inactive) | 5.53 µM (inactive) | 3.64 µM (inactive) | 9.46 µM (inactive) | 7.16 µM (inactive) |
| C[C@@H]1O[C@@H](O[C@H]2CC[C@]3(C=O)[C@H]4CC[C@]5(C)[C@@H](C6=CC(=O)OC6)CC[C@]5(O)[C@@H]4CC[C@]3(O)C2)[C@H](O)[C@H](O)[C@H]1O [CONVALLATOXIN] | 8.79e-06 µM (active) | 5.74e-05 µM (active) | 1.05e-05 µM (active) | 4.78e-05 µM (active) | 2.93e-05 µM (active) | 0.00013 µM (active) | 4.3e-05 µM (active) | 6.01e-06 µM (active) | 3.71e-05 µM (active) | 9.93e-06 µM (active) | 8.91e-06 µM (active) | 1.67e-05 µM (active) | 2.73e-05 µM (active) | 6.4e-05 µM (active) | 2.05e-05 µM (active) | 4.3e-05 µM (active) | 3.93e-05 µM (active) | 6.67e-05 µM (active) | < 0.01 µM (active) |
| COc1cc(NC=C2C(=O)OC(C)(C)OC2=O)c(OC)c(C)c1OC | > 100 µM (inactive) | > 100 µM (inactive) | > 100 µM (inactive) | > 100 µM (inactive) | > 100 µM (inactive) | > 100 µM (inactive) | > 100 µM (inactive) | > 100 µM (inactive) | > 65.2 µM (inactive) | > 100 µM (inactive) | > 100 µM (inactive) | > 100 µM (inactive) | > 100 µM (inactive) | > 100 µM (inactive) | > 100 µM (inactive) | > 88.3 µM (inactive) | > 100 µM (inactive) | > 100 µM (inactive) | > 100 µM (inactive) |
| Cc1c(S(=O)(=O)O)ccc(/N=N/c2c(O)c(C(=O)O)cc3ccccc23)c1Cl | > 89.3 µM (inactive) | > 100 µM (inactive) | > 100 µM (inactive) | > 100 µM (inactive) | > 100 µM (inactive) | > 49.8 µM (inactive) | > 100 µM (inactive) | > 100 µM (inactive) | > 63.5 µM (inactive) | > 100 µM (inactive) | > 100 µM (inactive) | > 100 µM (inactive) | > 100 µM (inactive) | > 100 µM (inactive) | > 100 µM (inactive) | > 100 µM (inactive) | > 100 µM (inactive) | > 100 µM (inactive) | > 100 µM (inactive) |
| OCC12C3C4C5C3C1C5C42 (stereo not drawn) | > 100 µM (inactive) | > 100 µM (inactive) | > 100 µM (inactive) | > 100 µM (inactive) | > 100 µM (inactive) | > 100 µM (inactive) | > 100 µM (inactive) | > 100 µM (inactive) | > 100 µM (inactive) | > 100 µM (inactive) | > 100 µM (inactive) | > 100 µM (inactive) | > 100 µM (inactive) | > 100 µM (inactive) | > 100 µM (inactive) | > 100 µM (inactive) | > 100 µM (inactive) | > 100 µM (inactive) | > 100 µM (inactive) |
